# Legend:
# Format in all cases: cell-based
# [1] = test system: MDA-231-MB breast cancer cells; assay: Induction of apoptosis, activated caspase 3 (FITC-DEVD-FMK fluorescence microscopy); settings: 25 μM or similar concentrations, 4 hours at 37° C. (FIG. 11)
# Protocol: DHA and EPA conjugates of propofol are used to test their activities against MDA-231-MB breast cancer cells. Induction of apoptosis was assayed by incubating cells with DHA, EPA, or propofol alone or DHA, EPA with propofol as well as DHA-, and EPA as propofol conjugates for 4 hours at 37° C.
# [2] = test system: breast carcinoma MDA-MB-231 cells; assay: Cell adhesion assay, adherence to human vitronectin; settings: 45 min at 37° C., compared with vehicle treated control (FIG. 13)
# Protocol: The cell adhesion assay was performed according to the procedure described in Deryugina, E. I., Ratnikov, B., Postnova, T. I., Rozanov, D. V., Strongin, A. Y. (2002) J. Biol. Chem. 277, 9749-9756. The cell adhesion assay was preformed using cyctomatrix of human vitronectin in a 96-well plate (Chemicon International Incorp. of Temecula, Calif.). Each well was incubated with 100 μL of breast carcinoma MDA-MB-231 cells (1×10^5 cells/ml) at 37° C. for 45 min in a CO2 incubator. Individual wells were treated with one of the following: (a) individual agents: DHA, EPA, and propofol; or (b) the combined agents: DHA and propofol, and EPA and propofol; or (c) the conjugates DHA-propofol, or EPA propofol (prepared as described above in Examples 2 and 3). After incubation, the wells were washed three times with PBS, and the adhered cells were stained with crystal violet in 10% ethanol for 5 min at room temperature. The excess stain was subsequently removed by washing the wells six times with PBS. The stained cells were dissolved in 100 microliters (μL) of solubilizing buffer (1:1 mixture of 0.1M NaH2PO4 at a pH of 4.5 in 50% ethanol) and the absorbance of each of the resulting samples was read at 540 nm. The absorbance of dye in the control (vehicle treated cells) was regarded as 100%, and the percent adherence of treated cells was calculated in comparison to that control.
# Jurkat leukemic cells = assay: Jurkat leukemic cell growth and viability (WST-1 Cell Proliferation Kit); settings: RVT alone, 10 μM, 24 hours, RPMI media containing 2% serum
# Protocol: In order to evaluate the anti-proliferative activity and synergism between DHA and RVT, the two compounds were added separately to cell cultures containing Jurkat leukemic cells. In a separate experiment, a mixture of DHA and RVT components were added to the Jurkat leukemic cell cultures. The results are illustrated in FIG. 8 as a bar graph. Jurkat cells (Jurkat clone E6-1 from American Type Culture Collection of Manassas, Va. (5×10^4/well)) were incubated with either DHA or RVT, or a combination as indicated in a 96-well plate for 24 hours at 37° C. using a 5% CO2 in RPMI media containing 2% serum. Cell growth and viability were determined using a WST-1 Cell Proliferation Kit (sold by Roche Molecular Biochemicals of Indianapolis, Ind.). The control was a “ethanol-treated” control group. For the results illustrated in FIG. 8, the average was taken of three separate experiments. For the combination of DHA and RVT, a student t test provided a P<0.001 relative to the “ethanol-treated” control group. […] However, when the two components were combined into a single formulation, a synergistic inhibition of Jurkat cell growth was observed. The combination of DHA (30 μM) and RVT (10 μM) inhibited cell growth by about 60%. This is indicative of a synergistic interaction between DHA and RVT on cancer cell growth. […]
# Jurkat cells = assay: Jurkat leukemic cell apoptosis (YO-PRO-1 labeling, flow cytometry)
# Protocol: The DHA-RVT ester prepared according to Example 1 was dissolved in DMSO. This solution was used to treat Jurkat cells labeled with YO-PRO-1 (sold by Molecular Probes of Oregon), which is a green fluorescent dye used in flagging apoptotic cells. The labeled cells were analyzed using a FACStar-plus flow cytometer equipped with a water-cooled argon laser emitting at a frequency of 488 nm. Detection of the fluorescent probe was ascertained using a 530±30 band-pass filter. The data depicted in FIGS. 10a-c are illustrated in the form of a histogram. The fluorescent intensity is indicative of apoptotic expression. The unfilled histogram represents the labeled, non-treated cells (1); the filled histogram represents the treated cells (2). […] At approximately 1 μM concentration, the DHA-RVT ester induced apoptosis in approximately 50% of the Jurkat cells (FIG. 10b) while at a concentration of 0.1 μM the ester had little effect on the Jurkat cells (FIG. 10c). Concentrations of resveratrol (10 μM) plus DHA (10 μM) have no effect on Jurkat cell growth.
Compound,induction of apoptosis [1],inhibition of adherence of cancerous cells to vitronectin [2],also measured
"CCC=CCC=CCC=CCC=CCC=CCC=CCCC(=O)Oc1c(C(C)C)cccc1C(C)C [DHA-propofol, 2,6 Diisopropylphenyldocosa-Hexaenoate]",effectively induced apoptosis,inhibition of adherence,
"CC/C=C\C/C=C\C/C=C\C/C=C\C/C=C\CCCC(=O)O [EPA, eicosopentenoic acid, reference compound]",not very effective,not displayed,
"CCC=CCC=CCC=CCC=CCC=CCCCC(=O)Oc1c(C(C)C)cccc1C(C)C [EPA-propofol, 2,6-Diisopropylphenyl Eicosopentenoate]",effectively induced apoptosis,inhibition of adherence,
"Oc1ccc(C=Cc2cc(O)cc(O)c2)cc1 [RVT, resveratrol]",,,effect on Jurkat cell growth (Jurkat leukemic cells): neither the DHA (up to 30 μM) nor the RVT (10 μM) alone had any significant effect
"CC(C)c1cccc(C(C)C)c1O [propofol, 2,6-diisopropylphenol, reference compound]",not very effective,not displayed,
resveratrol ester of docosahexaenoic acid [DHA-RVT ester],,,effect on Jurkat cells (apoptosis) (Jurkat cells; 0.1 μM (FIG. 10c)): little effect; apoptosis of Jurkat cells (Jurkat cells; 10 μM (FIG. 10a)): apoptosis in nearly all; Jurkat cells in which apoptosis was induced (Jurkat cells; approximately 1 μM (FIG. 10b)): approximately 50%

# Source: US8008458B2, “Fatty acid phenolic conjugates” (Indiana University Health Inc., priority 2002, dated 2011)
